Experimental data reported in patent US10336702B2, “Pharmaceutically active compounds” (BERGENBIO ASA, priority 2015, dated 2019).

Assays:
[1] = target: T1, Akt2 (Homo sapiens, UniProt P31751); experiment: Akt activation assay (PDK1-mediated activation, LANCE Ultra crosstide TR-FRET), Akt2; format: biochemical; conditions: read-out: Biological Assay 1 IC50 (nM) Akt2
T1 construct: unspecified tag, removed (detagged) (cleaved yes); purchased SignalChem and Proteros (Akt2); Merck Millipore (PDK1) 14-452 (PDK1); none given for Akt2
Method in brief: (§1)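 Unactivated Akt (5 nM Akt1, 15 or 5 nM Akt2, 3 or 5 nM Akt3, by supplier) preincubated with compound, then activated by 5 nM PDK1 on DOPS/DOPC/PtdIns(3,4,5)P3 vesicles with 100 μM ATP and 100 nM Ulight-crosstide, pH 7.5, 30 min. Eu-anti-phospho-crosstide TR-FRET (665/615 nm); IC50 by 4-parameter fit.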

[2] = target: T2, p-Akt3 in WM115 cells (Homo sapiens, UniProt Q9Y243); experiment: Phospho-Akt cellular SureFire assay, p-Akt3 in WM115 cells; format: cell-based; conditions: insulin stimulated, read-out: Biological Assay 2 IC50 (nM) Akt3 WM115
T2 construct: SureFire assays to detect cellular p-Akt1, p-Akt2 and p-Akt3 levels in WM115 cells (Akt2/3) and LNCaP cells (Akt1); endogenous in cells; host or cells: WM115 (ECACC 91061232), insulin-stimulated
Method in brief: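 WM115 cells were serum-reduced to 0.1% FBS, stimulated with 100 nM insulin for 10 min, then exposed to compound (0.3% DMSO) for 15 min at 37 °C. Lysates were assayed for Thr308-phosphorylated Akt3 by AlphaScreen SureFire using an isoform-specific total Akt3 capture antibody. IC50 was derived from a 4-parameter fit.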

[3] = target: T3, p-Akt1 in LNCaP cells (Homo sapiens, UniProt P31749); experiment: Phospho-Akt cellular SureFire assay, p-Akt1 in LNCaP cells; format: cell-based; conditions: read-out: Biological Assay 2 IC50 (nM) Akt1 LNCaP
T3 construct: SureFire assays to detect cellular p-Akt1, p-Akt2 and p-Akt3 levels in WM115 cells (Akt2/3) and LNCaP cells (Akt1); endogenous in cells; host or cells: LNCaP (ECACC 89110211)
Method in brief: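 LNCaP cells, 5×10^4/well, seeded overnight, switched to 0.1% FBS medium without insulin stimulation, then compound for 15 min at 37 °C (0.3% DMSO). Lysate p-Akt1 (pThr308) by AlphaScreen SureFire, two 2 h incubations at room temperature; IC50 by 4-parameter fit.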

[4] = target: T4, p-Akt2 in WM115 cells (Homo sapiens, UniProt P31751); experiment: Phospho-Akt cellular SureFire assay, p-Akt2 in WM115 cells; format: cell-based; conditions: insulin stimulated, read-out: Biological Assay 2 IC50 (nM) Akt2 WM115
T4 construct: SureFire assays to detect cellular p-Akt1, p-Akt2 and p-Akt3 levels in WM115 cells (Akt2/3) and LNCaP cells (Akt1); endogenous in cells; host or cells: WM115 (ECACC 91061232), insulin-stimulated
Method in brief: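 WM115 cells in 0.1% FBS medium stimulated 10 min with 100 nM insulin, then exposed to compound for 15 min at 37° C (0.3% DMSO final). Lysates assayed by AlphaScreen with anti-(pThr308)Akt and isoform-specific total Akt2 antibodies; IC50 from 4-parameter fit.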

[5] = target: T5, Akt1 (Homo sapiens, UniProt P31749); experiment: Akt activation assay (PDK1-mediated activation, LANCE Ultra crosstide TR-FRET), Akt1; format: biochemical; conditions: read-out: Biological Assay 1 IC50 (nM) Akt1
T5 construct: unspecified tag, removed (detagged) (cleaved yes); purchased SignalChem and Proteros (Akt1); Merck Millipore (PDK1) 14-452 (PDK1); none given for Akt1
Method in brief: as §1

[6] = target: T6, Akt3 (Homo sapiens, UniProt Q9Y243); experiment: Akt activation assay (PDK1-mediated activation, LANCE Ultra crosstide TR-FRET), Akt3; format: biochemical; conditions: read-out: Biological Assay 1 IC50 (nM) Akt3
T6 construct: unspecified tag, removed (detagged) (cleaved yes); purchased SignalChem and Proteros (Akt3); Merck Millipore (PDK1) 14-452 (PDK1); none given for Akt3
Method in brief: as §1

T6 sequence (Q9Y243 whole entry): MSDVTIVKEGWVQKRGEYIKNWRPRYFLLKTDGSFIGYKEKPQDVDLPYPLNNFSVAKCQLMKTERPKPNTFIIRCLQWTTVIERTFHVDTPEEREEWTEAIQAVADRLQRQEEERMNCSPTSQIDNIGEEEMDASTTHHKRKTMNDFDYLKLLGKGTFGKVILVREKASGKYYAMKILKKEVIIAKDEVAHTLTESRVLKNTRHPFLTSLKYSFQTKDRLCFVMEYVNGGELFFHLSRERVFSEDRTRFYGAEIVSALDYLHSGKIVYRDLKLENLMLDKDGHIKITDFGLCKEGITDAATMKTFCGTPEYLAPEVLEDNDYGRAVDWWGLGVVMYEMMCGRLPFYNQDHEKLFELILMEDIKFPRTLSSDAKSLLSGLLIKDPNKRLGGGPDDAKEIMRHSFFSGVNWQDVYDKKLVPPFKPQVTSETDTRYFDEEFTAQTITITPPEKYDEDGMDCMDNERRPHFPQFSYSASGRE
T2 sequence (Q9Y243 whole entry): as above
T4 sequence (P31751 whole entry): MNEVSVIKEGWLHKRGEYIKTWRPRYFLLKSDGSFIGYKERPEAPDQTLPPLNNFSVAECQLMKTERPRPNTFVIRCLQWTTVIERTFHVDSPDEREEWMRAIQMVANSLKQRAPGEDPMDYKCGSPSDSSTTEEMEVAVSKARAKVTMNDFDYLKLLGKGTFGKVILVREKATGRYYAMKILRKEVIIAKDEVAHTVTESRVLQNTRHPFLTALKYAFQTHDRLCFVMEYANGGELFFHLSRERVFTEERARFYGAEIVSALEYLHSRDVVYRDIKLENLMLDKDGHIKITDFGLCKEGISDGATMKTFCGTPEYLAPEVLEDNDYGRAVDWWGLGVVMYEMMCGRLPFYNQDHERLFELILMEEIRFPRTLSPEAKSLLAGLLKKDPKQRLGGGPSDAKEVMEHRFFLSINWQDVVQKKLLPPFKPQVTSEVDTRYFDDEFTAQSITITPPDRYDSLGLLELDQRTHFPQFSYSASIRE
T1 sequence (P31751 whole entry): as above
T5 sequence (P31749 whole entry): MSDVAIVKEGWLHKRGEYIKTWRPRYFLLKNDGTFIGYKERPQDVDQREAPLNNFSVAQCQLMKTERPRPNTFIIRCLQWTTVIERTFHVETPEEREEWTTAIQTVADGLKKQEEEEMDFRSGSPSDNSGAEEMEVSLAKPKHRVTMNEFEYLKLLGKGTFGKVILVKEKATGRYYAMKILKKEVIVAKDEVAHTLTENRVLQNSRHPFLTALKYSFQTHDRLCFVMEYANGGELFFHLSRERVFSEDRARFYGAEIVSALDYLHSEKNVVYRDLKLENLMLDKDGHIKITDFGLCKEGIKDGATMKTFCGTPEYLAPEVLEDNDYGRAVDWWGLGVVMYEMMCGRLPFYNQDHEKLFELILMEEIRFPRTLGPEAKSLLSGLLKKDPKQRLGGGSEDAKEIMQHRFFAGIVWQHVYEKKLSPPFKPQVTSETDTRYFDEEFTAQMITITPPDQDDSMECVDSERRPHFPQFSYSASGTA
T3 sequence (P31749 whole entry): as above

IC50 [1] [nM]	IC50 [2] [nM]	IC50 [3] [nM]	IC50 [4] [nM]	IC50 [5] [nM]	IC50 [6] [nM]	Compound
2200	270	> 30000	> 3790	> 30000	140	NC1(c2ccc(-c3nnc(NC(=O)C[C@H]4CC[C@H](N5CCOC5=O)CC4)cc3-c3ccccc3)cc2F)CC1 [Example A50, N-(6-(4-(1-aminocyclopropyl)-3-fluorophenyl)-5-phenylpyridazin-3-yl)-2-(trans-4-(2-oxooxazolidin-3-yl)cyclohexyl)acetamide]
190	7	2000	620	11000	7	CCN(C(=O)OC)[C@H]1CC[C@H](CC(=O)Nc2cc(-c3ccccc3)c(-c3ccc([C@]4(N)C[C@](C)(O)C4)cc3)nn2)CC1 [Example 129, Methyl (trans-4-(2-((6-(4-(trans-1-amino-3-hydroxy-3-methylcyclobutyl)phenyl)-5-phenylpyridazin-3-yl)amino)-2-oxoethyl)cyclohexyl) (ethyl)carbamate]
5600	1000	> 30000	> 30000	> 30000	200	COC(=O)N(C)[C@H]1CC[C@H](CC(=O)Nc2cc(-c3ccccc3)c(-c3ccc(C4(N)CC4)c(F)c3)nn2)CC1 [Example A104, Methyl (trans-4-(2-((6-(4-(1-aminocyclopropyl)-3-fluorophenyl)-5-phenylpyridazin-3-yl)amino)-2-oxoethyl)cyclohexyl)(methyl)carbamate]
110	30	2700	1800	780	15	CC(=O)N(C)[C@H]1CC[C@H](CC(=O)Nc2cnc(-c3ccc([C@]4(N)C[C@](C)(O)C4)cc3)c(-c3ccccc3)c2)CC1 [Example 1, N-(6-(4-(trans-1-amino-3-hydroxy-3-methylcyclobutyl)phenyl)-5-phenylpyridin-3-yl)-2-(trans-4-(N-methylacetamido)cyclohexyl)acetamide]
460	35	> 7500	1400	> 22000	10	CC(=O)N(C)[C@H]1CC[C@H](CC(=O)Nc2cc(-c3ccccc3)c(-c3ccc(C4(N)CC4)cc3)nn2)CC1 [Example 72, N-(6-(4-(1-aminocyclopropyl)phenyl)-5-phenylpyridazin-3-yl)-2-(trans-4-(N-methylacetamido)cyclohexyl)acetamide]
740	250	9700	8000	> 30000	28	CC(=O)N(C)[C@H]1CC[C@H](CC(=O)Nc2cc(-c3ccccc3)c(-c3ccc([C@]4(N)C[C@H](F)C4)cc3)cn2)CC1 [Example A59, N-(5-(4-((1r,3r)-1-amino-3-fluorocyclobutyl)phenyl)-4-phenylpyridin-2-yl)-2-(trans-4-(N-methylacetamido)cyclohexyl)acetamide]
130	10	2400	380	> 19000	6	CCC(=O)N(C)[C@H]1CC[C@H](CC(=O)Nc2cc(-c3ccccc3)c(-c3ccc([C@]4(N)C[C@](C)(O)C4)cc3)cn2)CC1 [Example 82, N-(trans-4-(2-((5-(4-(trans-1-amino-3-hydroxy-3-methylcyclobutyl)phenyl)-4-phenylpyridin-2-yl)amino)-2-oxoethyl)cyclohexyl)-N-methylpropionamide]
94	9	7300	390	> 30000	9	COCC(=O)N(C)[C@H]1CC[C@H](CC(=O)Nc2cc(-c3ccccc3)c(-c3ccc([C@]4(N)C[C@](C)(O)C4)cc3)cn2)CC1 [Example 107, N-(trans-4-(2-((5-(4-(trans-1-amino-3-hydroxy-3-methylcyclobutyl)phenyl)-4-phenylpyridin-2-yl)amino)-2-oxoethyl)cyclohexyl)-2-methoxy-N-methylacetamide]
590	59	> 30000	> 30000	> 30000	26	N[C@]1(c2ccc(-c3nnc(NC(=O)C[C@H]4CC[C@H](N5CCOC5=O)CC4)cc3-c3ccsc3)cc2)C[C@@H](F)C1 [Example 79, N-(6-(4-(trans-1-amino-3-fluorocyclobutyl)phenyl)-5-(thiophen-3-yl)pyridazin-3-yl)-2-(trans-4-(2-oxooxazolidin-3-yl)cyclohexyl)acetamide]
1200	390	> 30000	9100	> 30000	69	CCC(=O)N(C)[C@H]1CC[C@H](CC(=O)Nc2cc(-c3ccccc3)c(-c3ccc(C4(N)CC4)cc3)cn2)CC1 [Example A81, N-(trans-4-(2-((5-(4-(1-aminocyclopropyl)phenyl)-4-phenylpyridin-2-yl)amino)-2-oxoethyl)cyclohexyl)-N-methylpropionamide]
110	130	3400	1500	7500	15	NC1(c2ccc(-c3cnc(NC(=O)C[C@H]4CC[C@H](N5CCCC5=O)CC4)cc3-c3ccccc3)cc2)CCC1 [Example A71, N-(5-(4-(1-aminocyclobutyl)phenyl)-4-phenylpyridin-2-yl)-2-(trans-4-(2-oxopyrrolidin-1-yl)cyclohexyl)acetamide]
200	66	> 30000	> 10500	> 22800	17	NC1(c2ccc(-c3nnc(NC(=O)C[C@H]4CC[C@H](N5CCOC5=O)CC4)cc3-c3ccccc3)cc2)CC(F)(F)C1 [Example 61, N-(6-(4-(1-amino-3,3-difluorocyclobutyl)phenyl)-5-phenylpyridazin-3-yl)-2-(trans-4-(2-oxooxazolidin-3-yl)cyclohexyl)acetamide]
53	5	1900	320	2600	4	C[C@]1(O)C[C@@](N)(c2ccc(-c3nnc(NC(=O)C[C@H]4CC[C@H](N5CCCCC5=O)CC4)cc3-c3ccccc3)cc2)C1 [Example A98, N-(6-(4-(trans-1-amino-3-hydroxy-3-methylcyclobutyl)phenyl)-5-phenylpyridazin-3-yl)-2-(trans-4-(2-oxopiperidin-1-yl)cyclohexyl)acetamide]
540	66	> 17000	12000	> 30000	22	CC(=O)N(C)[C@H]1CC[C@H](CC(=O)Nc2cc(-c3ccccc3)c(-c3ccc(C4(N)CC(F)(F)C4)cc3)nn2)CC1 [Example 73, N-(6-(4-(1-amino-3,3-difluorocyclobutyl)phenyl)-5-phenylpyridazin-3-yl)-2-(trans-4-(N-methylacetamido)cyclohexyl)acetamide]
2300	730	> 30000	> 30000	> 30000	110	CCC(=O)N(C)[C@H]1CC[C@H](CC(=O)Nc2cc(-c3ccccc3)c(-c3ccc(C4(N)CC4)c(F)c3)nn2)CC1 [Example A103, N-(trans-4-(2-((6-(4-(1-aminocyclopropyl)-3-fluorophenyl)-5-phenylpyridazin-3-yl)amino)-2-oxoethyl)cyclohexyl)-N-methylpropionamide]
> 30000	480	> 30000	> 30000	> 30000	1800	CC(C)(N)c1ccc(-c2nnc(NC(=O)C[C@H]3CC[C@H](N4CCOC4=O)CC3)nc2-c2ccccc2)cc1 [Example 69, N-(6-(4-(2-aminopropan-2-yl)phenyl)-5-phenyl-1,2,4-triazin-3-yl)-2-(trans-4-(2-oxooxazolidin-3-yl)cyclohexyl)acetamide]
